“Also recorded” adds a separate entry of the source.

What all share (format): cell-based
For assay [1], the target named is T1, BRD4 (Homo sapiens, UniProt O60885). Put plainly: Summary of E3 ligase directed degradation of BRD4, estimated from Western Blot or WES (Tables 1-6). Also on record: endogenous in cells; host or cells: HeLa, MCF7 or HCT116. To be noted: for Degradation of BRD4, combination with CRBN ligand [drawing 422] / Degradation of BRD4, combination with CRBN ligand [drawing 397] / Degradation of BRD4, combination with CRBN ligand [drawing 421]: Table 1; for Degradation of BRD4, combination with CRBN ligand [drawing 422]: CRBN ligand drawn as drawing 422 (by the text apparently 8066); for Degradation of BRD4, combination with CRBN ligand [drawing 397]: aromatic 1,2-diol- or hindered cis-1,2-diol-containing CRBN ligand drawn as drawing 397 (by the text apparently 8046); for Degradation of BRD4, combination with MDM2 ligand [drawing 431]: Table 2, aromatic 1,2-diol-containing MDM2 ligand drawn as drawing 431 (by the text apparently 8314); for Degradation of BRD4, combination with CRBN ligand [drawing 421]: CRBN ligand drawn as drawing 421 (by the text apparently 8047). As for the experimental part:
(§1) HeLa, MCF7, or HCT116 cells (2.5-3×10^6) were treated for 24 hours with the indicated compounds solubilized in DMSO. The cells were washed in ice-cold PBS and were then lysed in RIPA lysis buffer (150 mM NaCl, 5 mM EDTA, 1% NP-40, 0.5% sodium deoxycholate, 0.1% SDS, 50 mM Tris, pH 8.0) with Roche protease inhibitor complete cocktail and phosphatase inhibitors (10 mM sodium fluoride, 10 mM sodium pyrophosphate, 1 mM sodium orthovanadate and 20 mM β-glycerophosphate). The total protein concentrations were determined by Bradford Protein Assay and 10-20 μg of protein was loaded onto 4-15% Tris-Glycine gradient gels (Biorad). After standard gel electrophoresis, the separated proteins were transferred to PVDF membrane by wet transfer. The immunoblots were then blocked for 1 hour in 5% skim milk in TBST or 5% BSA in TBST, according to manufacturer's instructions, before an overnight incubation at 4° C. with indicated antibodies and membranes. Membranes were then incubated with the appropriate horseradish peroxidase-conjugated secondary antibodies (1:5,000 dilution) for 1 h at room temperature and the bands were visualized using the Clarity Max Western ECL Substrate (Biorad) and the ChemiDoc Imaging System (Biorad). Signal was detected with ECL Western Blotting Substrate (Pierce) and X-ray film processed with a Konica SRX-101 X-ray film processor or captured by Bio-Rad's Chemidoc Imaging system.
WES Simple analysis was performed on WES system (ProteinSimple-Biotechne) according to the manufacturer's instructions. Total protein concentrations of cell lysates were determined by the Pierce BCA kit (Thermo Fisher). 3 μL of 0.3 μg/uL of the protein lysate was loaded onto a 12- to 230-kDa WES assay plate (ProteinSimple) where 300 nL sample was withdrawn through a capillary, subjected to electrophoretic separation of proteins by size, and followed by the simultaneous, HRP-based detection of proteins using the Anti-Rabbit Detection Module (Proteinsimple: #DM-001). The electropherograms were checked then the automatic peak detection was manually corrected if it was required.
A black check mark indicates efficacy of 30% to 70% or higher protein degradation.

Assay [2] concerns the target T1, BRD4. Put plainly: CURE-PRO-mediated BRD4 degradation in HeLa cells, Western blot. Also on record: endogenous in cells; host or cells: HeLa. Particulars: 24 h. As for the experimental part:
(§2) All cell lines were purchased from ATCC or DSMZ and grown at 37° C. with 5% C02. Human HeLa cells were cultured in complete growth medium (Dulbecco's modified Eagle's medium (DMEM) supplemented with 10% FBS); MCF7 cells were cultured in complete growth medium (Dulbecco's modified Eagle's medium (DMEM) supplemented with 10% FBS and 0.01 mg/ml human recombinant insulin (Sigma Aldrich); Namalwa and MOLM-13 cells were cultured in complete growth medium (RPMI 1640 medium supplemented with 10% FBS); MV-4-11 were cultured in complete growth medium (Iscove's Modified Dulbecco's medium, supplemented with 10% FBS); HCT116 cells were cultured in complete growth medium (McCoy's 5a Medium supplemented with 10% FBS). For cellular degradation of BRD4 studies, cells were seeded in a 12-well plate at 70-80% confluency, allowed to attach overnight, and incubated with the indicated compounds for the indicated time. When indicated, a 15-minute pretreatment with 10 μM pomalidomide, 10 μM VHL298, 10 μM Nutlin3a, 1 μM MG-132 or 1 μM Carfilzomib was performed before the addition of CURE-PROs. For washout studies, after CURE-PRO treatment, media was aspirated and incubated with complete medium for the indicated time before lysis.
Anti-BRD4 (13440, 1:1,000 dilution for Western Blot and 1:25 dilution for ProteinSimple); Anti-BRD2 (5848 1:1,000 dilution for Western Blot and 1:25 dilution for ProteinSimple); β-Actin (3700, 1:2,000 dilution for Western Blot), β-Actin (4970, 1:50 dilution for ProteinSimple) anti-mouse IgG-HRP, and anti-rabbit IgG-HRP antibodies were purchased Cell Signaling Technology. Anti-GAPDH (600-401-A33, 1:100 dilution for ProteinSimple) was purchased from Rockland Immunochemicals, Inc. Anti-BRD3 (sc-81202, 1:200 dilution for Western Blot) was purchased from Santa Cruz Biotechnology.
as §1
HeLa cells (2.5×10^6) were treated for 24 hours with the sample compounds solubilized in DMSO. Compounds were added at 1-10 μM each. Standardized protein samples were electrophoresed and imaged as described in the immunoblotting description above. FIGS. 6-18 depicts the CURE-PRO-mediated BRD4 degradation for BRD monomers (JQ1 derivatives comprising of catechol linkers), and CRBN ligands, 8048 and 8049 (pomalidomide derivatives comprising boronic acid linkers) combined in a 1:1 ratio.
HeLa cells (2.5×10^6) were treated for 24 hours with the compounds solubilized in DMSO. The compounds were added at 10 μM each. Standardized protein samples were electrophoresed and imaged as described in the immunoblotting section above. […]

Assay [3] concerns MV-4-11 cells. Put plainly: CellTiter-Glo cell viability, MV-4-11 cells. As for the experimental part: as §2
CellTiter-Glo® 2.0 Cell Viability Assay (Promega) was carried out following the manufacturer's recommendations. Cells were seeded at a density of 1000 cells/well in a white 96 well plates (Corning, #3917) in a total volume of 100 μl with respective monomers, combinations of BRD ligands together with E3 ligase ligands or vehicle control treatment. After a 72 h incubation, 100 ul of the CellTiter-Glo® substrate was added per well and luminescence was read on a Spectramax M5 (Molecular Devices). Dose-response curves were generated using Graphpad Prism software.
MV-4-11 cells (5×104) were treated for 24 hours with the sample compounds solubilized in DMSO. The compounds were added at 1 nM-100 μM each. Cellular viability was determined using the CellTiter-Glo® Luminescent Cell Viability Assay (Promega) described above. FIGS. 19-22 depict the CURE-PRO-mediated loss of cellular viability for BRD monomers (JQ1 derivatives comprising of catechol linkers), and CRBN ligand, 8049 (pomalidomide derivatives comprising boronic acid linkers) combined in a 1:1 ratio.
MV-4-11 cells (1×104) were treated for 72 hours with the compounds solubilized in DMSO. Compounds were added at 10 nM-100 μM each. Cellular viability was determined using the CellTiter-Glo® Luminescent Cell Viability Assay (Promega) described above. FIGS. 47-54 depict the CURE-PRO-mediated loss of cellular viability for BRD monomers (JQ1 derivatives comprising of boronic acid linkers), and CRBN ligands, 8046, 8047, and 8066 (pomalidomide derivatives comprising diol linkers) combined in a 1:1 ratio.
(ATP-based viability assays read luminescence as a measure of living cells.)

Setting [4] is: 72 h, 10 nM-100 μM, cotreated 1:1 with each of CRBN ligands 8066, 8046 and 8047, compared to monomers alone.

`COc1ccc2c(c1)C(c1ccc(Cl)cc1)=N[C@@H](CC(=O)NCCCCCNC(=O)c1cccc(B(O)O)c1)c1nnc(C)n1-2` [BRD-E08]: in assay [1], the “Degradation of BRD4, combination with CRBN ligand [drawing 422]” value (from here on “Degradation of BRD4 … [drawing 422]”) is “✓ (A black check mark indicates efficacy of 30% to 70% or higher protein degradation)”; the “Degradation of BRD4, combination with CRBN ligand [drawing 397]” value (“Degradation of BRD4 … [drawing 397]” below) is reported as “✓ (A black check mark indicates efficacy of 30% to 70% or higher protein degradation)”; the “Degradation of BRD4, combination with MDM2 ligand [drawing 431]” value (from here on “Degradation of BRD4 … [drawing 431]”) is “✓ (A black check mark indicates efficacy of 30% to 70% or higher protein degradation)”. Also, the BRD4 degradation entry in assay [2] (BRD ligand (monomer) alone) is “no change in expression is observed”. Moreover, the BRD4 degradation entry in assay [2] (co-treated 1:1 with CRBN ligand 8046, 10 μM each unless the value states a concentration, listed as BRD-E8) is “Degradation is observed at 100 nM and 1 μM”.
As to `CCNC(=O)C[C@@H]1N=C(c2ccc(Cl)cc2)c2cc(OCCNC(=O)c3cccc(B(O)O)c3)ccc2-n2c(C)nnc21` [BRD-E21, (3-((2-(((4S)-6-(4-chlorophenyl)-4-(2-(ethylamino)-2-oxoethyl)-1-methyl-4H-benzo[f][1,2,4]triazolo[4,3-a][1,4]diazepin-8-yl)oxy)ethyl)carbamoyl)phenyl)boronic acid], in assay [1], the “Degradation of BRD4, combination with CRBN ligand [drawing 421]” value is recorded as “✓ (A black check mark indicates efficacy of 30% to 70% or higher protein degradation)” and the “Degradation of BRD4 … [drawing 431]” value is recorded as “✓ (A black check mark indicates efficacy of 30% to 70% or higher protein degradation)”. In addition, in assay [2] (BRD ligand (monomer) alone), the BRD4 degradation result is recorded as “no change in expression is observed”.
For `COc1ccc2c(c1)C(c1ccc(Cl)cc1)=N[C@@H](CC(=O)NCCNC(=O)/C=C/c1ccc(B(O)O)cc1)c1nnc(C)n1-2` [BRD-E29, (4-((E)-3-((2-(2-((4S)-6-(4-chlorophenyl)-8-methoxy-1-methyl-4H-benzo[f][1,2,4]triazolo[4,3-a][1,4]diazepin-4-yl)acetamido)ethyl)amino)-3-oxoprop-1-en-1-yl)phenyl)boronic acid], in assay [1], the “Degradation of BRD4, combination with CRBN ligand [drawing 421]” value was “✓ (A black check mark indicates efficacy of 30% to 70% or higher protein degradation)”; the “Degradation of BRD4 … [drawing 422]” value is on record as “✓ (A black check mark indicates efficacy of 30% to 70% or higher protein degradation)”; the “Degradation of BRD4 … [drawing 397]” value is reported as “✓ (A black check mark indicates efficacy of 30% to 70% or higher protein degradation)”. The “toxicity / loss of cellular viability (CellTiter-Glo)” value (“toxicity / loss of cellular viability” below) in assay [3] (setting [4]) was “reduced viability; also recorded: increased toxicity”.
With `COc1ccc2c(c1)C(c1ccc(Cl)cc1)=N[C@@H](CC(=O)NCCOCCOCCNC(=O)c1cccc(B(O)O)c1)c1nnc(C)n1-2` [BRD-E46], in assay [1], the “Degradation of BRD4 … [drawing 422]” value is “✓ (A black check mark indicates efficacy of 30% to 70% or higher protein degradation)” and the “Degradation of BRD4 … [drawing 397]” value was “✓ (A black check mark indicates efficacy of 30% to 70% or higher protein degradation)”. Besides, in assay [3] (setting [4]), the “toxicity / loss of cellular viability” value is recorded as “reduced viability; also recorded: increased toxicity”.
For the compound `CCNC(=O)C[C@@H]1N=C(c2ccc(Cl)cc2)c2cc(Sc3ccc(B(O)O)cc3)ccc2-n2c(C)nnc21` [BRD-E75, (4-(((4S)-6-(4-chlorophenyl)-4-(2-(ethylamino)-2-oxoethyl)-1-methyl-4H-benzo[f][1,2,4]triazolo[4,3-a][1,4]diazepin-8-yl)thio)phenyl)boronic acid], in assay [1], the “Degradation of BRD4 … [drawing 431]” value was “✓ (A black check mark indicates efficacy of 30% to 70% or higher protein degradation)”. Moreover, the “toxicity / loss of cellular viability” value in assay [3] (setting [4]) is on record as “reduced viability; also recorded: increased toxicity”.
Regarding `CCNC(=O)C[C@@H]1N=C(c2ccc(Cl)cc2)c2cc(Sc3cccc(B(O)O)c3)ccc2-n2c(C)nnc21` [BRD-E76], in assay [1], the “Degradation of BRD4 … [drawing 397]” value is “✓ (A black check mark indicates efficacy of 30% to 70% or higher protein degradation)”. Moreover, the “toxicity / loss of cellular viability” value in assay [3] (setting [4]) was “reduced viability; also recorded: increased toxicity”.
As to `CCNC(=O)C[C@@H]1N=C(c2ccc(Cl)cc2)c2cc(OCCCCCCCNC(=O)c3ccc(B(O)O)cc3)ccc2-n2c(C)nnc21` [BRD-E78], the “Degradation of BRD4, combination with VHL ligand [drawing 442]” value in assay [1] (Table 3, aromatic 1,2-diol-containing VHL ligand drawn as drawing 442 (by the text apparently 8305)) is “✓ (A black check mark indicates efficacy of 30% to 70% or higher protein degradation)”. In assay [3] (setting [4]), the “toxicity / loss of cellular viability” value is recorded as “reduced viability; also recorded: increased toxicity”.
Turning to `COc1ccc2c(c1)C(c1ccc(Cl)cc1)=N[C@@H](CC(=O)NCCc1ccc(O)c(O)c1)c1nnc(C)n1-2` [BRD-N10, (S)-2-(6-(4-chlorophenyl)-8-methoxy-1-methyl-4H-benzo[f][1,2,4]triazolo[4,3-a][1,4]diazepin-4-yl)-N-(3,4-dihydroxyphenethyl)acetamide], the “Degradation of BRD4, combination with CRBN ligand [drawing 457]” value in assay [1] (Table 4, aryl-boronic acid-containing CRBN ligand drawn as drawing 457 (by the text apparently 8048)) is “✓ (A black check mark indicates efficacy of 30% to 70% or higher protein degradation)”. The “Degradation of BRD4, combination with CRBN ligand [drawing 458]” value in assay [1] (Table 4, aryl-boronic acid-containing CRBN ligand drawn as drawing 458 (by the text apparently 8049)) is recorded as “✓ (A black check mark indicates efficacy of 30% to 70% or higher protein degradation)”. Also, in assay [1] (Table 5, aryl-boronic acid-containing MDM2 ligand drawn as drawing 463 (apparently 8310)), the “Degradation of BRD4, combination with MDM2 ligand [drawing 463]” value is listed as “✓ (A black check mark indicates efficacy of 30% to 70% or higher protein degradation)”. Besides, in assay [3] (1 nM-100 μM, cotreated 1:1 with CRBN ligand 8049), the “toxicity / loss of cellular viability” value was “a concentration-dependent loss in cellular viability was observed; also recorded: increased toxicity”.

Values taken from US20240000950A1, “THERAPEUTIC CURE-PRO COMPOUNDS FOR TARGETED DEGRADATION OF BET DOMAIN PROTEINS, AND METHODS OF MAKING AND USING THEM” (CORNELL UNIVERSITY, priority 2020, published 2024).
